Measurements: paper PMC6522510 (Nature Communications, 2019)

Tests used:
CMK = assay: Secondary dose-response HTS, Cell Titer Glo; assay type: cell-based, human; settings: Homo sapiens, CMK; secondary HTS, 72 h, average of triplicate; read-out: EC50 CMK
CMS = assay: Secondary dose-response HTS, Cell Titer Glo; assay type: cell-based, human; settings: Homo sapiens; secondary HTS, 72 h, average of triplicate; read-out: EC50 CMS
[1] = system: panel of 8 AML cell lines; assay: Secondary dose-response HTS, whole panel; assay type: cell-based, human; settings: Homo sapiens; all cell lines; read-out: potency across subtypes in the secondary HTS
U937 = assay type: cell-based; settings: Homo sapiens, U-937; 72 h, Cell Titer Glo
[2] = system: Mll PTD/wt:Flt3 ITD/ITD double knock-in primary transplant blasts (bone marrow, spleen); assay: Accumulation in primary murine blasts; assay type: cell-based, mouse; settings: blasts from bone marrow or spleen
Experimental: Cells were washed twice with ice-cold PBS; cell pellets were solubilized in 400 µL 1 N NaOH and agitated (300 rpm) at room temperature for 2 h. Then samples were neutralized with […] 1 M HCl; a 25 µL aliquot of lysate was used to estimate protein concentration using a Pierce BCA protein assay kit (Thermo Scientific). Total radioactivity was measured by a Tri-Carb 4810TR liquid scintillation counter (Perkin-Elmer) after mixing the sample with 4 mL of Emulsifier Safe (Perkin Elmer); the results were normalized to total protein content as measured by a Pierce BCA protein assay kit. Three independent experiments were performed in triplicate.
Bone marrow and splenocytes were isolated from mice transplanted with dKI AML and CG-V617 AMKL. Following red blood cells lysis, dKI AML leukemic blasts from vehicle treated mice were evaluated for accumulation of cytarabine and gemcitabine using the uptake assay described above.
Supplementary Figure 5. Accumulation of cytarabine and gemcitabine .
unlabeled and [3H]-cytarabine (Ara- C) or gemcitabine ( Gem ). Intracellular Ara- C, Gem ,
scintillation counting and normalized to protein levels. Representative chromatogram for
as disintegrations per minute (DPM) over complete run time. (c) Percentage of total
independent experiments (N=9). (d) Accumulation was determined in cell lysate of bone
double knock-in primary transplant recipient. […]

[3] = system: AMKL patient-derived xenograft; assay: In vivo efficacy, survival; design: species or system NSG-SGM3 mice; settings: AMKL PDX, 50 mg kg−1 q4d, i.p.

Nc1ccn([C@@H]2O[C@H](CO)[C@@H](O)C2(F)F)c(=O)n1 [Gemcitabine, gemcitabine]
EC50 (CMK): 10 nM | EC50 (CMS): 30 nM | EC50 [1]: < 65 nM | IC50 (U937): 31 nM | accumulation of total gemcitabine versus cytarabine [2]: 6.0–6.7 fold | Median survival [3]: 76 days
